Values joined by “and” are separate entries in the source; they are usually repeats but may differ in a detail not shown here. Equal values may be shown once. Read-outs that look alike come from different tables or passages of the source. Marks after values point to notes of the source that are not given here.
Assays:
[1] = Clinical immunogenicity, anti-drug antibody (ADA) immunoassay; format: in vivo, human
Description: Blood samples were collected as described in the PK analysis. The anti-drug-antibody (ADA) to ADG106 in human serum was measured using a validated Affinity Capture and Elution (ACE) based immunoassay. All samples were first analyzed for ADAs in a screening assay. Study samples with results below the screening cut-off were reported as negative for ADAs. In the event of a positive result in the screening assay, samples were analyzed in the confirmatory assay. All samples confirmed positive were reported as positive.

[2] = GLP repeat-dose toxicity and safety pharmacology in cynomolgus monkeys; format: in vivo, cynomolgus monkey
[3] = test system: peripheral CD4+ and CD8+ T cells; assay: Ki-67 expression on peripheral T cells of patients by flow cytometry; format: in vivo, human
Text: T cell proliferation was examined by analyzing Ki-67 expression using flow cytometry analysis. Soluble CD137 (sCD137) levels in plasma were also examined using a validated MSD-based electrochemiluminescence assay.

[4] = test system: NK (CD16+/CD56+) cells; assay: TBNK flow cytometry of patient peripheral blood, NK cell percentage; format: in vivo, human; conditions: for Percentage of NK cells (CD3-CD56+/CD16+), Postdose: individual patients
Description: Pre- and post-treatment peripheral blood samples from 31 patients in a phase 1 trial were collected for biomarker analyses. The TBNK flow cytometry assay was employed to measure the composition of T (CD3+, CD4+/CD8+ subsets), B (CD19+) and NK (CD16+/CD56+) cells in peripheral blood samples. NK cell levels were determined as percentages of CD45+ lymphocytes and absolute cell counts.

[5] = test system: L5178-R murine T cell lymphoma; assay: L5178-R murine T cell lymphoma syngeneic model; format: in vivo, DBA/2 mice; conditions: 20 mg/kg i.p. once every 3 days
Text: The animals were randomized and treatment started when tumor volumes reach 50-80 mm^3, or on the day of cell inoculation (FIGS. 17A and 17C). Each group consisted of 8 tumor-bearing mice. […] Tumor growth and animal body weight were monitored every 2-3 days.

[6] = test system: 3LL (JCRB) murine lung cancer cells; assay: 3LL lung cancer model, ADG106 with atezolizumab; format: in vivo, C57BL/6 mice; conditions: 10 mg/kg i.p. twice a week for 3 weeks
Text: C57BL/6 mice (n=10 per group, female, 6-8 weeks old) were inoculated subcutaneously with 3LL (JCRB) murine lung cancer cells, a Lewis lung cancer cell line.

[7] = test system: Lewis lung cancer cells; assay: Lewis lung cancer model, ADG106 with anti-PD-1 antibody 2E5; format: in vivo, C57BL/6 mice; conditions: 5 mg/kg i.p. twice a week for 2 weeks
Description: C57BL16 mice (n=8 per group, female, 6-8 weeks old) were transplanted subcutaneously with 5×10^5 Lewis lung cancer cells. […] Tumor growth was monitored twice weekly and reported as mean tumor volume ±SEM over time.

[8] = test system: 4T1 breast cancer cells; assay: 4T1 breast cancer model, ADG106 with ADG116; format: in vivo, BALB/c mice; conditions: ADG106 5 mg/kg, ADG116 2 mg/kg i.p. twice a week for 2 weeks
Text: (§1) Tumor growth was monitored twice weekly and is reported as mean tumor volume ±SEM over time.

[9] = test system: 4T1 breast cancer cells; assay: 4T1 breast cancer model, ADG106 with docetaxel; format: in vivo, BALB/c mice; conditions: 5 mg/kg; ADG106 i.p. twice a week 4 doses, Docetaxel i.v. once a week 3 doses
Text: as §1

[10] = test system: Lewis lung cancer cells; assay: Lewis lung cancer model, ADG106 with cisplatin; format: in vivo, C57BL/6 mice; conditions: 5 mg/kg i.p.
Description: C57BL/6 mice (n=8 per group, female, 6-8 weeks old) were transplanted subcutaneously with 5×10^5 Lewis lung cancer cells. […] Tumor growth was monitored twice weekly and reported as mean tumor volume ±SEM over time.

[11] = test system: LLC-CD20 cells; assay: LLC-CD20 lung cancer model, ADG106 with rituximab; format: in vivo, C57BL/6 mice; conditions: 10 mg/kg i.p. twice a week for 3 weeks
Description: C57BL/6 mice (n=6 per group, female, 6-8 weeks old) were transplanted subcutaneously with 5×10^5 LLC-CD20 cells, a Lewis lung cancer cell line expressing CD20. […] Tumor growth was monitored twice weekly and reported as mean tumor volume ±SEM over time.

[12] = test system: MC38 colon cancer cells; assay: MC38 colon cancer model, ADG106 with local radiation; format: in vivo, C57BL/6 mice; conditions: 10 mg/kg twice a week for 3 weeks
Description: C57BL/6 mice (n=8 per group, female, 6-8 weeks old) were transplanted subcutaneously with 5×10^5 MC38 colon cancer cells. […] Tumor growth was monitored twice weekly and reported as mean tumor volume ±SEM over time.

[13] = test system: CD137 receptor; assay: Cellular NFκB reporter gene assay (CD137-expressing NFκB-Luc Jurkat reporter cells); format: cell-based, human; conditions: functional cellular NFκB reporter gene assay
Description: The CD137-expressing NFκB-Luc Jurkat reporter cells were stimulated with the anti-CD137 antibodies in the absence (left panel) or presence (right panel) of co-cultured CHO-K1 cell expressing human FcγRIIb. Luciferase activity was measured by bioluminescence assay.

[14] = test system: T cells; assay: T cell activation in vitro (with anti-CD3 antibody co-treatment); format: cell-based
Text: To elaborate, there could be unquantified/uncertain combination effect with other MOAs, particularly with Immuno-oncology (IO) agents which could be potentially additive and/or synergistic for AEs.

[15] = target: CD137 / CD137 ligand (4-1BBL) (Homo sapiens, UniProt Q07011); assay: Blocking of CD137 / CD137 ligand interaction; format: binding
Chain of CD137 / CD137 ligand (4-1BBL) (Q07011 24-255): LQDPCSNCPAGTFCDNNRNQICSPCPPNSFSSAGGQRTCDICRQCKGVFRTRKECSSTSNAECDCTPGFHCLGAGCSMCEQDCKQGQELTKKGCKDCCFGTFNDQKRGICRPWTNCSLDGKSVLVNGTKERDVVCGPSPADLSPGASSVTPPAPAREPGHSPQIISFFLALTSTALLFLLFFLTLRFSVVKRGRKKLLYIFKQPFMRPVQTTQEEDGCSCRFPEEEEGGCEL
Text: This was expected given that CD137 is known to function as a co-stimulatory T cell receptor. […] This property might prevent the potential of dual independent activation of CD137 potentially accounting for its distinct pharmacology and toxicology profile among this class of therapeutic antibodies.

[16] = test system: C1q, human FcγR1; assay: C1q and FcγR1 binding, NK cell ADCC on activated human CD8+ T cells
[17] = test system: rabbit blood; assay: In vitro hemolysis in rabbit blood; conditions: concentrations up to 2.54 mg/mL
Text: Furthermore, with the cytoplasmic nature of the staining, no significant biological relevancy is anticipated.

[18] = human, in vivo, iv
Description: Blood samples for PK analysis were collected at Cycle 1 (Day 1: pre-dose and 2, 6, 12, and 24 hours after the end of infusion; once on Days 8, 15, and 22), Day 1 pre-dose and 2 hours after the end of infusion of subsequent cycles, and at the End of Treatment. […] PK parameters were estimated using a non-compartmental method with WinNonlin.

[19] = test system: NK (CD16+/CD56+) cells; assay: TBNK flow cytometry of patient peripheral blood, NK cell percentage; format: in vivo, human; conditions: 32 patients analyzed
[20] = target: CD137 (Homo sapiens, UniProt Q07011); assay: Receptor occupancy calculated from drug plasma concentration and KD
Chain of CD137 (Q07011 24-255): as above

ADG106: fully human agonistic anti-CD137 monoclonal IgG4 antibody; heavy chain SEQ ID NO: 10, light chain SEQ ID NO: 11
treatment emergent or boosted ADA ([1]; Chinese patients tested so far): 5 of 23 | patients with treatment-induced anti-drug antibodies ([1]; patients tested): about 20% | NOAEL and HNSTD ([2]; cynomolgus monkey, in vivo): > 200 mg/kg | NOEL and NOAEL ([2]; once weekly IV infusion up to 29 days): 200 mg/kg | increase in the frequency of Ki-67+CD4+ T cells ([3]; patient R011): increased about one fold | increase in the frequency of proliferating CD8+ T cells ([3]; patient R011): four to five fold increase | total CD8+ T cells expressing Ki-67 at peak ([3]; patient R011, 21 days after infusion): ~25% | Percentage of NK cells (CD3-CD56+/CD16+), Postdose ([4]; C1D8): 25.14% and 28.38% and 11.18% and 22.03% and 35.85% and 36.13% and 8.25% and 22.79% and 46.22% and 15.01% and 14.06% and 34.54% and 11.84% and 32.43% and 10.14% and 23.1% and 55% and 35.4% and 19.5% and 14.7% and 25% | Percentage of NK cells (CD3-CD56+/CD16+), Postdose ([4]; C1D15): 21.21* % and 22.19* % | Percentage of NK cells (CD3-CD56+/CD16+), Postdose ([4]; C1D21): 39.58^# % and 4.27^# % and 20.01^# % and 34.74^# % and 40.45^# % and 26.93^# % and 27.23^# % and 18.81^# % and 16.65^# % | dose saturating CD137 receptors on NK cells (NK cell proliferation effect) ([4]; patients): ≥ 1.5 mg/kg | antitumor activity [5]: resistant to ADG106 treatment | anti-tumor activity, monotherapy [6]: showed anti-tumor activity | tumor growth, single agent [7]: significantly inhibit tumor growth | anti-tumor activity, monotherapy [8]: showed anti-tumor activity | anti-tumor activity, mono-therapy [9]: marginal anti-tumor activity | anti-tumor activity, monotherapy [10]: showed anti-tumor activity | tumor growth, single agent [11]: only weakly inhibited tumor growth | antitumor activity, alone [12]: marginal if any antitumor activity | potency to activate recombinant human, monkey, mouse, and rat CD137 receptors [13]: comparable nanomolar potency | concentration range triggering observable, not maximal T cell activation ([14]; in vitro): 1 to 3 µg/mL | concentration range triggering robust T cell activation ([14]; with anti-CD3 antibody co-treatment): ≥ 10 µg/mL | blocking of the interaction of CD137 to the CD137 ligand (4-1BBL) [15]: fully blocks | C1q binding [16]: unable to bind C1 q | binding affinity for human FcγR1 protein [16]: low binding affinity | NK cell antibody-dependent cell-mediated cytotoxicity on activated human CD8+ T cells ([16]; human whole cell assays): did not show detectable | hemolysis [17]: no ADG106-related hemolysis | T1/2 ([18]; 0.03 mg/kg): 87 h | T1/2 ([18]; 0.3 mg/kg): 159 h | T1/2 ([18]; 1 mg/kg): 146.3 h | T1/2 ([18]; 3 mg/kg): 149 h | patients with a decrease of the NK cell level [19]: 6% | patients with no change of the NK cell level [19]: 6% | patients with an increase of the NK cell level in peripheral blood ([19]; after first cycle): 88% | Receptor occupancy ([20]; 0.03 mg/kg): 58% | Receptor occupancy ([20]; 0.1 mg/kg): 82% | Receptor occupancy ([20]; 0.3 mg/kg): 93% | Calculated Receptor Occupancy ([20]; 1 mg/kg): 98%
